Here are results for one compound from US11306066B2, “4H-pyran compounds as insulin-regulated aminopeptidase (IRAP) inhibitors” (Monash University, priority 2015, dated 2022).

The subject of the experiment is primary cultures of rat hippocampal neurons. The experiment is described as follows: In vitro hippocampal spine density. Format: cell-based. The settings on record: chronic treatment (3 doses of 10^−5M), days 14, 17 and 20; FIG. 1. The source says: In Vitro Hippocampal Spine Density
Dendritic spines are a complex, distinct cellular compartment that protrude from neuronal processes, and act as a source of synaptic contact vital for plasticity, signalling and neuronal integration. Hippocampal spine density increases in the rat brain after learning of an associative task, thereby acting as a substrate for the new memories. Drugs that enhance actin reorganisation in dendritic spines, a requirement for stabilisation of memory, have been proposed for the treatment of memory disorders.
Hippocampi from E18 rat pups were dissected into cold Hank's Basic Salt Solution, rinsed three times and incubated in 5 ml of 0.12% w/v trypsin and 40 μg/ml DNAse (Sigma-Aldrich, St. Louis, USA) for 20 minutes at 37° C. Clumped cells were triturated for one minute with a sterile 1 ml pipette. […] Cell density in a 1/10 dilution was measured using a haemocytometer. […]
For immunohistochemical staining of spines, coverslips were removed from plates and washed in PBS, then incubated in PBSX for 15 minutes to permeabilise membranes. […] Spines highlighted by drebrin immunostaining were counted in Image J. Single neurites were identified and all spines along a fifty micron segment were counted. […]

The structures appear in SMILES notation.

For `CC(=O)C1=C(C)OC(N)=C(C#N)C1c1ccc(C(=O)O)cc1.N` (stereo not shown) [Test Compound 1], the dendritic spine densities result was “statistically significant increases”.
